# ChEMBL document CHEMBL3621178, “Antidiabetic effect of novel benzenesulfonylureas as PPAR-γ agonists and their anticancer effect” (Bioorg Med Chem Lett, 2015)
# Active and inactive are the calls of the source. The rule behind the calls is not given here.
# Assays:
# Rattus norvegicus [1] = test: Antidiabetic activity in Wistar rat assessed as reduction in blood glucose level at 30 mg/kg, po dosed 30 mins before glucose challenge and measured 30 and 60 mins post glucose challenge by OGTT method; type: functional, organism-based
# 3T3-L1 = test: Increase in PPARgamma mRNA expression in mouse 3T3L1 cells at 10 uM incubated for 24 hrs by RT-PCR method; type: functional
# Rattus norvegicus [2] = test: Toxicity in STZ-induced diabetic Wistar rat model assessed as increase in body weight at 36 mg/kg, po repeated for 15 days […]; type: organism-based; details: in vivo, 360 h
# [3] = target: T1, Peroxisome proliferator-activated receptor gamma (Homo sapiens) (UniProt P37231); test: Agonist activity at PPARgamma (unknown origin) expressed in HEK293 cells assessed as receptor transactivation at 10 uM incubated for 24 hrs by luciferase reporter gene assay; type: cell-based
# T1 sequence (whole entry): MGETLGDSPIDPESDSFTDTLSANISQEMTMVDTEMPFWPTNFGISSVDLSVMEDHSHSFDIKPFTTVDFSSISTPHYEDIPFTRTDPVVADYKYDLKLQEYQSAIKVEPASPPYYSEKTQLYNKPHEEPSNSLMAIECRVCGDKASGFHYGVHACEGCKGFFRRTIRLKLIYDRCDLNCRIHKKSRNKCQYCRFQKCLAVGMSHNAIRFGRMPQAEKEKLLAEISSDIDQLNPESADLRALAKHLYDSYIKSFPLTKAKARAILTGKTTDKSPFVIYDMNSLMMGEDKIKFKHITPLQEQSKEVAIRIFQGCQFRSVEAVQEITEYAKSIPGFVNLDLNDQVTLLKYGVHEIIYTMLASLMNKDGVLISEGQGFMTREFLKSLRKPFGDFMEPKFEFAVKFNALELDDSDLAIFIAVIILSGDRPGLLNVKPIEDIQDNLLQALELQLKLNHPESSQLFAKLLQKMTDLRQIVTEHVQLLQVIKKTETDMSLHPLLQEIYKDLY
# Rattus norvegicus [4] = test: Antidiabetic activity in STZ-induced diabetic Wistar rat model assessed as reduction in blood glucose level at 36 mg/kg, po repeated for 15 days by GOD-POD method; type: functional, organism-based
# Rattus norvegicus [5] = test: Antidiabetic activity in Wistar rat assessed as reduction in blood glucose level at 36 mg/kg, po dosed 30 mins before glucose challenge and measured 30 and 60 mins post glucose challenge by OGTT method; type: functional, organism-based
# Rattus norvegicus [6] = test: Toxicity in STZ-induced diabetic Wistar rat model assessed as increase in body weight at 30 mg/kg, po repeated for 15 days […]; type: organism-based; details: in vivo, 360 h
# Rattus norvegicus [7] = test: Antidiabetic activity in STZ-induced diabetic Wistar rat model assessed as reduction in blood glucose level at 30 mg/kg, po repeated for 15 days by GOD-POD method; type: functional, organism-based
SMILES,Activity (Rattus norvegicus [1]),fold change (FC) (3T3-L1),Activity (Rattus norvegicus [2]),Activity [3],Activity (Rattus norvegicus [4]),Activity (Rattus norvegicus [5]),Activity (Rattus norvegicus [6]),Activity (Rattus norvegicus [7])
COc1ccc(C2CC(c3ccco3)=NN2c2ccc(S(=O)(=O)NC(=O)Nc3ccccc3C)cc2)cc1 (stereo not given),Active,–,–,–,–,–,–,–
CN(CCOc1ccc(CC2SC(=O)NC2=O)cc1)c1ccccn1 (stereo not given) [ROSIGLITAZONE],–,1.52,Toxic,Active,Active,Active,–,–
Cc1ccccc1NC(=O)NS(=O)(=O)c1ccc(N2N=C(c3cc4ccccc4oc3=O)CC2c2ccc(N(C)C)cc2)cc1 (stereo not given),Active,1.13,–,Active,–,–,Non-toxic,Active
CN(C)c1ccc(C2CC(c3ccco3)=NN2c2ccc(S(=O)(=O)NC(=O)NCc3ccccc3)cc2)cc1 (stereo not given),Active,–,–,Active,–,–,Non-toxic,Active
Cc1ccccc1NC(=O)NS(=O)(=O)c1ccc(N2N=C(c3ccco3)CC2c2ccc(N(C)C)cc2)cc1 (stereo not given),Active,–,–,Active,–,–,Non-toxic,Active
COc1ccc(NC(=O)NS(=O)(=O)c2ccc(N3N=C(c4ccco4)CC3c3ccc(N(C)C)cc3)cc2)cc1 (stereo not given),Active,–,–,–,–,–,–,–
COc1ccc(NC(=S)NS(=O)(=O)c2ccc(N3N=C(c4ccco4)CC3c3ccc(N(C)C)cc3)cc2)cc1 (stereo not given),Active,–,–,–,–,–,–,–
COc1ccc(Cl)cc1C(=O)NCCc1ccc(S(=O)(=O)NC(=O)NC2CCCCC2)cc1 [GLYBURIDE],Active,1.01,–,Active,–,–,Toxic,Active
COc1ccc(C2CC(c3cc4ccccc4oc3=O)=NN2c2ccc(S(=O)(=O)NC(=S)NCc3ccccc3)cc2)cc1 (stereo not given),Active,–,–,Active,–,–,Non-toxic,Active
